The values below come from US4325949A, “Combinations of agents which give enhanced anti-inflammatory activity” (American Cyanamid Company, priority 1980, dated 1982).

“And” between values parts separate entries of the source, which are not always exact repeats. Identical values can stand only once.

The nature of test [1]: body weight gain in the adjuvant induced arthritis test in the rat. Format: in vivo, rat (Royal Hart, Wistar strain). As to the method: (§1) Groups of three Royal Hart, Wistar strain rats, weighing 200±10 g. each were injected intradermally in the right hind paw with Freund's adjuvant (dried human tubercle bacilli in a mineral oil vehicle) at a dose of 2 mg./kg. of body weight. Test compositions were administered orally in a 1.5% starch vehicle at various doses once daily on days 0 through 13 post challenge. Control rats were treated in a similar manner, but given only starch vehicle. On the 14th, 21st, 28th and 35th days post challenge the diameter of the injected paw (primary lesion) was measured by micrometer caliper. The volume of inflamed paws were estimated from these measurements and the results are expressed as percent inhibition of swelling as compared to controls. At the same time, the other inflamed sites, such as ears, paws and tail (secondary lesions) were observed and each rat was graded as to degree of inflammation and swelling present. The grading is based on a scale of 0 to 24, where 0 represents a complete absence of induced arthritic modules and 24 represents the maximum degree of inflammation. The mean grade for each treated group is calculated and the effects of each test compound are expressed as percent inhibition of the control grade. The following Tables I-V record the results of tests conducted with the compositions of this invention and conventional anti-inflammatory agents both separately and in combination. All tests were replicated several times. Each treatment group represents a total of 18 rats. Each challenged control group comprised 36 rats and each unchallenged control group was 9 rats.

The test system of test [2] is adjuvant induced arthritis. Nature of the test: adjuvant induced arthritis test in the rat (primary and secondary lesions). Format: in vivo, rat (Royal Hart, Wistar strain). As to the method:
as §1

The test system of test [3] is arthritic paw swelling. To be noted: S. Wong et al. 1973; G. R. Bobalick et al. 1974; cited from earlier work.
The mark [4] stands for this setting: oral 0.25 mg/kg once daily, day 14, 0.25 mg/kg.
Where [5] appears, read: oral 0.5 mg/kg once daily, day 14, 0.5 mg/kg.
Setting [6] is: oral 0.5 mg/kg once daily, day 21, 0.5 mg/kg.
The mark [7] stands for this setting: oral 1.0 mg/kg once daily, day 14, 1 mg/kg.
Where [8] appears, read: oral 1.0 mg/kg once daily, day 21, 1 mg/kg.

As to `COc1ccc2c(c1)c(CC(=O)O)c(C)n2C(=O)c1ccc(Cl)cc1` [Indomethacin, 1-(4-chlorobenzoyl)-5-methoxy-2-methyl-1H-indole-3-acetic acid, reference compound], the “Body Weight Gain in Grams” value is 59 Grams and 43 Grams in test [1] (setting [4]); 45 Grams and 46 Grams in test [1] (oral 0.25 mg/kg once daily, day 21, 0.25 mg/kg); 71 Grams and 61 Grams in test [1] (setting [5]); 57 Grams and 51 Grams in test [1] (setting [6]); 92 Grams and 76 Grams in test [1] (setting [7]); 84 Grams and 70 Grams in test [1] (setting [8]). Further, the “Primary Lesions (% Inhibition)” value in test [2] (setting [4]) is 29% and 44%; in test [2] (setting [5]), 50% and 41%; in test [2] (oral 0.5 mg/kg once daily, day 21) it was 8%; in test [2] (setting [7]) it was 63% and 57%; in test [2] (setting [8]), 27% and 24%. Also, the “Secondary Lesions (% Inhibition)” value in test [2] (setting [4]) was 22% and 25%; in test [2] (setting [6]), 10% and 3%; in test [2] (setting [7]), 54% and 48%; in test [2] (setting [8]) it was 30% and 27%. Also, the arthritic paw swelling result in test [3] is “inhibit arthritic paw swelling”. Besides, in test [3], the “joint and bone deterioration” value is “prevent joint and bone deterioration”.
